According to US20170050957A1, “4-AMINO-6-(HETEROCYCLIC)PICOLINATES AND 6-AMINO-2-(HETEROCYCLIC)PYRIMIDINE-4-CARBOXYLATES AND THEIR USE AS HERBICIDES” (Dow AgroSciences LLC, priority 2013, published 2017):
Where two headings read alike, the source gives them in different places.

Key:
[1] = test system: Key Grass and Sedge Weeds as well as Grass Crops; assay: Post-emergent Test II herbicidal activity (Table 16); assay type: in vivo; details: post-emergence, 336 h, 14 d; for pest or weed control at 35 g/ha: 35 g ai/ha; for pest or weed control at 70 g/ha: 70 g ai/ha; for pest or weed control at 140 g/ha: 140 g ai/ha
In short: (§1)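 Herbicidal effect scored as percent visual injury, 14 d after post-emergent application. Spray solutions contained acetone, DMSO, isopropyl alcohol, crop oil concentrate and surfactant, applied at 187 L/ha to young plants (1-2 true leaves).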

[2] = test system: Key Broadleaf Weed and Crop Species; assay: Post-emergent Test II herbicidal activity (Table 15); assay type: in vivo; details: post-emergence, 336 h, 14 d; for pest or weed control at 35 g/ha: 35 g ai/ha; for pest or weed control at 70 g/ha: 70 g ai/ha; for pest or weed control at 140 g/ha: 140 g ai/ha
In short: as §1

[3] = Cyperus esculentus, yellow nutsedge (Cyperus esculentus), read-out: Visual Growth Reduction (%) 14 Days After Application, CYPES
[4] = Echinochloa crus-galli, barnyardgrass (Echinochloa crus-galli), read-out: Visual Growth Reduction (%) 14 Days After Application, ECHCG
[5] = Oryza sativa, rice (Oryza sativa), read-out: Visual Growth Reduction (%) 14 Days After Application, ORYSA
[6] = Setaria faberi, giant foxtail (Setaria faberi), read-out: Visual Growth Reduction (%) 14 Days After Application, SETFA
[7] = Triticum aestivum, wheat, spring (Triticum aestivum), read-out: Visual Growth Reduction (%) 14 Days After Application, TRZAS
[8] = Zea mays, maize, corn (Zea mays), read-out: Visual Growth Reduction (%) 14 Days After Application, ZEAMX
[9] = Abutilon theophrasti, velvetleaf (Abutilon theophrasti), read-out: Visual Growth Reduction (%) 14 Days After Application, ABUTH
[10] = Amaranthus retroflexus, redroot pigweed (Amaranthus retroflexus), read-out: Visual Growth Reduction (%) 14 Days After Application, AMARE
[11] = Brassica napus, oilseed rape, canola (Brassica napus), read-out: Visual Growth Reduction (%) 14 Days After Application, BRSNN
[12] = Chenopodium album, lambsquarters (Chenopodium album), read-out: Visual Growth Reduction (%) 14 Days After Application, CHEAL
[13] = Euphorbia heterophylla, wild poinsettia (Euphorbia heterophylla), read-out: Visual Growth Reduction (%) 14 Days After Application, EPHHL
[14] = Helianthus annuus, sunflower (Helianthus annuus), read-out: Visual Growth Reduction (%) 14 Days After Application, HELAN

| SMILES | pest or weed control at 35 g/ha [1, 3] | pest or weed control at 70 g/ha [1, 3] | pest or weed control at 140 g/ha [1, 3] | pest or weed control at 35 g/ha [1, 5] | pest or weed control at 70 g/ha [1, 5] | pest or weed control at 140 g/ha [1, 5] | pest or weed control at 35 g/ha [1, 6] | pest or weed control at 70 g/ha [1, 6] | pest or weed control at 140 g/ha [1, 6] | pest or weed control at 35 g/ha [1, 7] | pest or weed control at 70 g/ha [1, 7] | pest or weed control at 140 g/ha [1, 7] | pest or weed control at 35 g/ha [1, 8] | pest or weed control at 70 g/ha [1, 8] | pest or weed control at 140 g/ha [1, 8] | pest or weed control at 35 g/ha [2, 9] | pest or weed control at 70 g/ha [2, 9] | pest or weed control at 140 g/ha [2, 9] | pest or weed control at 35 g/ha [2, 10] | pest or weed control at 70 g/ha [2, 10] | further results |
| --- | --- | --- | --- | --- | --- | --- | --- | --- | --- | --- | --- | --- | --- | --- | --- | --- | --- | --- | --- | --- | --- |
| COC(=O)c1nc(-c2ccc(Cl)c3[nH]ccc23)c(F)c(N)c1Cl [Compound 1.43] | 0 to 29% | 0 to 29% | 0 to 29% | 0 to 29% | 0 to 29% | 0 to 29% | 0 to 29% | 0 to 29% | 0 to 29% | 0 to 29% | 0 to 29% | 0 to 29% | 0 to 29% | 0 to 29% | 0 to 29% | 0 to 29% | 0 to 29% | 60 to 74% | 95 to 100% | 95 to 100% | pest or weed control at 35 g/ha [1, 4]: 0 to 29%; pest or weed control at 70 g/ha [1, 4]: 0 to 29%; pest or weed control at 140 g/ha [1, 4]: 0 to 29%; pest or weed control at 140 g/ha [2, 10]: 95 to 100%; pest or weed control at 35 g/ha [2, 11]: 0 to 29%; pest or weed control at 70 g/ha [2, 11]: 0 to 29%; pest or weed control at 140 g/ha [2, 11]: 0 to 29%; pest or weed control at 35 g/ha [2, 12]: 75 to 84%; pest or weed control at 70 g/ha [2, 12]: 85 to 94%; pest or weed control at 140 g/ha [2, 12]: 85 to 94%; pest or weed control at 35 g/ha [2, 13]: 0 to 29%; pest or weed control at 70 g/ha [2, 13]: 0 to 29%; pest or weed control at 140 g/ha [2, 13]: 30 to 44%; pest or weed control at 35 g/ha [2, 14]: 60 to 74%; pest or weed control at 70 g/ha [2, 14]: 75 to 84%; pest or weed control at 140 g/ha [2, 14]: 75 to 84% |
| COC(=O)c1nc(-c2ccc(Cl)c3occc23)nc(N)c1OC [Compound 2.21] | 0 to 29% | 0 to 29% | 0 to 29% | 0 to 29% | 0 to 29% | 0 to 29% | 0 to 29% | 0 to 29% | 0 to 29% | 0 to 29% | 0 to 29% | 0 to 29% | 0 to 29% | 0 to 29% | 0 to 29% | 30 to 44% | 60 to 74% | 60 to 74% | 95 to 100% | 95 to 100% | pest or weed control at 140 g/ha [2, 10]: 95 to 100%; pest or weed control at 35 g/ha [2, 11]: 30 to 44%; pest or weed control at 70 g/ha [2, 11]: 30 to 44%; pest or weed control at 140 g/ha [2, 11]: 45 to 59%; pest or weed control at 35 g/ha [2, 12]: 85 to 94%; pest or weed control at 70 g/ha [2, 12]: 85 to 94%; pest or weed control at 140 g/ha [2, 12]: 95 to 100%; pest or weed control at 35 g/ha [2, 13]: 0 to 29%; pest or weed control at 70 g/ha [2, 13]: 0 to 29%; pest or weed control at 140 g/ha [2, 13]: 0 to 29%; pest or weed control at 35 g/ha [2, 14]: 60 to 74%; pest or weed control at 70 g/ha [2, 14]: 75 to 84%; pest or weed control at 140 g/ha [2, 14]: 75 to 84% |
| COC(=O)c1nc(-c2ccc3cc[nH]c3c2F)c(Cl)c(N)c1Cl [Compound 1.07] | 0 to 29% | 0 to 29% | 0 to 29% | 0 to 29% | 0 to 29% | 0 to 29% | 60 to 74% | 75 to 84% | 75 to 84% | 0 to 29% | 0 to 29% | 0 to 29% | 0 to 29% | 0 to 29% | 0 to 29% | 0 to 29% | 0 to 29% | 0 to 29% | 85 to 94% | 95 to 100% | pest or weed control at 35 g/ha [1, 4]: 0 to 29%; pest or weed control at 70 g/ha [1, 4]: 0 to 29%; pest or weed control at 140 g/ha [1, 4]: 0 to 29%; pest or weed control at 140 g/ha [2, 10]: 95 to 100%; pest or weed control at 35 g/ha [2, 11]: 0 to 29%; pest or weed control at 70 g/ha [2, 11]: 0 to 29%; pest or weed control at 140 g/ha [2, 11]: 0 to 29%; pest or weed control at 35 g/ha [2, 12]: 85 to 94%; pest or weed control at 70 g/ha [2, 12]: 85 to 94%; pest or weed control at 140 g/ha [2, 12]: 85 to 94%; pest or weed control at 35 g/ha [2, 13]: 60 to 74%; pest or weed control at 70 g/ha [2, 13]: 60 to 74%; pest or weed control at 140 g/ha [2, 13]: 60 to 74%; pest or weed control at 35 g/ha [2, 14]: 95 to 100%; pest or weed control at 70 g/ha [2, 14]: 95 to 100%; pest or weed control at 140 g/ha [2, 14]: 95 to 100% |
